Laboratory results taken from patent US20130004589A1, “DIVALENT CATION/ANION PAIR CONTAINING COMPOSITIONS AND METHODS FOR TREATING AND/OR PREVENTING ENZYMATIC IRRITATION” (priority 2011, published 2013).

Legend:
trypsin [1] = experiment: EnzChek trypsin inhibition assay of talc mixed with divalent cation salts (Example 3); type: biochemical; settings: for % synergistic activity relative to hypothetic additive value: Table 3, all materials 0.1% (g/mL)
Description: The objective of the following experiment was to determine whether and to what extent adding a divalent cation to talc inhibited trypsin activity in an in vitro assay. The inhibition of trypsin-induced cleavage of a fluorescent casein peptide was measured using the EnzChek™ protease assay kit, following manufacturer's instructions (EnzChek™ Protease Assay Kits Product Information, Revised; Molecular Probes, Eugene Oreg.). […] Trypsin working solution (Sigma, St. Louis, Mo., unit/mL) was prepared in digestion buffer provided in the assay kit. Stock solution of BODIPY FL casein (trypsin substrate, mg/mL) was prepared by adding 0.2 mL to the substrate vials (provided in kit), and the final substrate working solution (10 microgram/mL) was prepared by dilution in digestion buffer (pH 7.8). Following incubation of the trypsin, with or without the test materials, with the BODIPY fluorescent casein substrate, at room temperature for one hour, fluorescence was measured (excitation 485 nm/emission 530 nm) using a SpectraMax microtiter plate reader (Molecular Devices Corporation, Sunnyvale, Calif.) and Softmax Pro software (Molecular Devices Corporation). Each experiment was performed in three replicates.

trypsin [2] = experiment: EnzChek trypsin inhibition assay of zinc oxide/acid mixtures and zinc oxide formulations (Example 4); type: biochemical; settings: Example 4 conclusions
Description: The objective of the following experiment was to determine whether and to what extent adding an acid to a formulation containing zinc oxide had on inhibition of trypsin activity in an in vitro assay. The inhibition of trypsin-induced cleavage of a fluorescent casein peptide was measured using the EnzChek™ protease assay kit, following manufacturer's instructions (EnzChek™ Protease Assay Kits Product Information, Revised; Molecular Probes, Eugene Oreg.). Briefly, mixtures of zinc oxide and acid at different concentrations were prepared in 1×PBS (pH 7.4) and their pH was recorded as listed in the Tables 5-8. Trypsin working solution (Sigma, St. Louis, Mo., unit/mL) was prepared in digestion buffer provided in the assay kit. Stock solution of BODIPY FL casein (trypsin substrate, mg/mL) was prepared by adding 0.2 mL to the substrate vials (provided in kit), and the final substrate working solution (10 microgram/mL) was prepared by dilution in digestion buffer (pH 7.8). Following incubation of the trypsin, with or without the test materials (50 μl), with the BODIPY fluorescent casein substrate, at room temperature for one hour, fluorescence was measured (excitation 485 nm/emission 530 nm) using a SpectraMax microtiter plate reader (Molecular Devices Corporation, Sunnyvale, Calif.) and Softmax Pro software (Molecular Devices Corporation). Each experiment was performed in three replicates.

CC(=O)[O-].CC(=O)[O-].O.[Ca+2] [Calcium acetate monohydrate]
% synergistic activity relative to hypothetic additive value (trypsin [1]): 3.10%

[Ca+2].[Cl-].[Cl-] [Calcium chloride]
% synergistic activity relative to hypothetic additive value (trypsin [1]): −0.26%

[Cl-].[Cl-].[Mg+2] [Magnesium chloride]
trypsin inhibitory activity, result in words (trypsin [1]; Example 3, Table 4 conclusions): moderate to low levels

[O]=[Zn] [ZnO, zinc oxide]
trypsin inhibitory activity, result in words (trypsin [2]): minimal protease activity
